Laboratory results as given in article PMC9743148 (Annals of oncology : official journal of the European …, 2020).
Entries after “also recorded” stand apart in the source; their conditions may differ. Like-named read-outs stand apart in the source and are kept apart here.

Columns and labels:
[1] = system: patients with advanced solid tumors; assay: Dose-limiting toxicity, MTD and RP2D determination; type: in vivo, human
[2] = Dose-proportionality power regression of PK parameters; type: in vivo, human; conditions: 8–200-mg dose range t.i.w.
[3] = for T1/2 / Tmax: 20 mg q.d.
clinical = conditions: human, plasma, oral; for AUC(0-inf): AUC0–inf; for AUC(0-t): AUC0–last
[4] = 4 mg, 4 mg q.d., cycle 1 Day 1, mean
[5] = 4 mg, 4 mg q.d., cycle 1 Day 21, mean
[6] = 8 mg, 8 mg q.d., cycle 1 Day 1, mean
[7] = 8 mg, 8 mg t.i.w., cycle 1 Day 1, mean
[8] = 8 mg, 8 mg q.d., cycle 1 Day 21, mean
[9] = 8 mg, 8 mg t.i.w., cycle 1 Last Wednesday, mean
[10] = 16 mg, 16 mg q.d., cycle 1 Day 1, mean
[11] = 16 mg, 16 mg t.i.w., cycle 1 Day 1, mean
[12] = 16 mg, 16 mg q.d., cycle 1 Day 21, mean
[13] = 20 mg, 20 mg q.d., cycle 1 Day 1, mean
[14] = 20 mg, 20 mg q.d., cycle 1 Day 21, mean
[15] = 24 mg, 24 mg q.d., cycle 1 Day 1, mean
[16] = 24 mg, 24 mg t.i.w., cycle 1 Day 1, mean
[17] = 24 mg, 24 mg q.d., cycle 1 Day 21, mean
[18] = 36 mg, 36 mg t.i.w., cycle 1 Day 1, mean
[19] = 56 mg, 56 mg t.i.w., cycle 1 Day 1, mean
[20] = 80 mg, 80 mg t.i.w., cycle 1 Day 1, mean
[21] = 120 mg, 120 mg t.i.w., cycle 1 Day 1, mean
[22] = 160 mg, 160 mg t.i.w., cycle 1 Day 1, mean

## C=CC(=O)N1CC[C@H](n2nc(C#Cc3cc(OC)cc(OC)c3)c3c(N)ncnc32)C1 [futibatinib]
Advanced solid tumors; 18 of 24 patients with cholangiocarcinoma
  Patients with CCA experiencing PR or SD: 75%
Advanced solid tumors; across cohorts (n = 86)
  Best overall response of confirmed partial response (PR): five
Advanced solid tumors; five responders
  Responses lasting >6 months: three
  Responses occurring within 3 months of initiating futibatinib: Four of five
[1]; 4, 8, 16, or 20 mg q.d.
  Dose-limiting toxicities: No DLTs were observed
[1]; human, in vivo, oral, 21 days
  Recommended phase II dose (RP2D): 20 mg q.d.
[1]; other t.i.w. cohorts including 200 mg
  Dose-limiting toxicities: no DLTs were reported
[1]; q.d. schedule
  Maximum tolerated dose (MTD): 20 mg q.d.
[1]; t.i.w. schedule, up to 200 mg
  Maximum tolerated dose (MTD): no MTD was defined; also recorded: not defined
[2]
  Dose proportionality of Cmax: less than a dose-proportional manner
[3]; cycle 1 Day 1, mean
  T1/2: 2.94 h
[3]; cycle 1 Day 1, median
  Tmax: 1.92 h
[3]; cycle 1 Day 21, mean
  T1/2: 3.44 h
[3]; cycle 1 Day 21, median
  Tmax: 3.52 h
[3]; both schedules
  Accumulation with repeated doses: no significant accumulation
[3]; urine
  Urinary excretion of futibatinib: lower than 0.01 % of the dose
clinical; [4]
  AUC(0-inf): 0.117 µg·h/mL
  AUC(0-t): 0.114 µg·h/mL
  Cmax: 0.0331 µg/mL
clinical; [5]
  AUC(0-t): 0.134 µg·h/mL
  Cmax: 0.0525 µg/mL
clinical; 4 mg, T1/2, 4 mg q.d., cycle 1 Day 1, mean
  half-life: 1.75 h
clinical; 4 mg, T1/2, 4 mg q.d., cycle 1 Day 21, mean
  half-life: 1.63 h
clinical; 4 mg, 4 mg q.d., cycle 1 Day 1, median
  Tmax: 0.96 h
clinical; 4 mg, 4 mg q.d., cycle 1 Day 21, median
  Tmax: 1.08 h
clinical; [6]
  AUC(0-inf): 0.524 µg·h/mL
  AUC(0-t): 0.666 µg·h/mL
  Cmax: 0.169 µg/mL
clinical; [7]
  AUC(0-inf): 0.315 µg·h/mL
  AUC(0-t): 0.304 µg·h/mL
  Cmax: 0.0855 µg/mL
clinical; [8]
  AUC(0-t): 0.55 µg·h/mL
  Cmax: 0.0982 µg/mL
clinical; [9]
  AUC(0-t): 0.472 µg·h/mL
  Cmax: 0.105 µg/mL
clinical; 8 mg, T1/2, 8 mg q.d., cycle 1 Day 1, mean
  half-life: 2.26 h
clinical; 8 mg, T1/2, 8 mg q.d., cycle 1 Day 21, mean
  half-life: 2.75 h
clinical; 8 mg, T1/2, 8 mg t.i.w., cycle 1 Day 1, mean
  half-life: 2.08 h
clinical; 8 mg, T1/2, 8 mg t.i.w., cycle 1 Last Wednesday, mean
  half-life: 2.01 h
clinical; 8 mg, 8 mg q.d., cycle 1 Day 1, median
  Tmax: 2 h
clinical; 8 mg, 8 mg q.d., cycle 1 Day 21, median
  Tmax: 2 h
clinical; 8 mg, 8 mg t.i.w., cycle 1 Day 1, median
  Tmax: 1.04 h
clinical; [10]
  AUC(0-inf): 0.549 µg·h/mL
  AUC(0-t): 0.536 µg·h/mL
  Cmax: 0.148 µg/mL
clinical; [11]
  AUC(0-inf): 0.744 µg·h/mL
  AUC(0-t): 0.736 µg·h/mL
  Cmax: 0.207 µg/mL
clinical; [12]
  AUC(0-t): 0.737 µg·h/mL
  Cmax: 0.172 µg/mL
clinical; 16 mg, 16 mg t.i.w., cycle 1 Last Wednesday, mean
  Cmax: 0.213 µg/mL
clinical; 16 mg, T1/2, 16 mg q.d., cycle 1 Day 1, mean
  half-life: 2.73 h
clinical; 16 mg, T1/2, 16 mg q.d., cycle 1 Day 21, mean
  half-life: 2.53 h
clinical; 16 mg, T1/2, 16 mg t.i.w., cycle 1 Day 1, mean
  half-life: 2.11 h
clinical; 16 mg, T1/2, 16 mg t.i.w., cycle 1 Last Wednesday, mean
  half-life: 2.75 h
clinical; 16 mg, 16 mg q.d., cycle 1 Day 1, median
  Tmax: 2 h
clinical; 16 mg, 16 mg q.d., cycle 1 Day 21, median
  Tmax: 2.07 h
clinical; 16 mg, 16 mg t.i.w., cycle 1 Day 1, median
  Tmax: 1 h
clinical; 16 mg, 16 mg t.i.w., cycle 1 Last Wednesday, median
  Tmax: 1 h
clinical; [13]
  AUC(0-inf): 1.3 µg·h/mL
  AUC(0-t): 1.19 µg·h/mL
  Cmax: 0.257 µg/mL
clinical; [14]
  AUC(0-t): 1.18 µg·h/mL
  Cmax: 0.171 µg/mL
clinical; 20 mg, T1/2, 20 mg q.d., cycle 1 Day 1, mean
  half-life: ~3 h
clinical; 20 mg, T1/2, 20 mg q.d., cycle 1 Day 21, mean
  half-life: ~3 h
clinical; [15]
  AUC(0-inf): 1.27 µg·h/mL
  AUC(0-t): 1.22 µg·h/mL
  Cmax: 0.246 µg/mL
clinical; [16]
  AUC(0-inf): 2.2 µg·h/mL
  AUC(0-t): 1.79 µg·h/mL
  Cmax: 0.258 µg/mL
clinical; [17]
  AUC(0-t): 1.42 µg·h/mL
  Cmax: 0.194 µg/mL
clinical; 24 mg, 24 mg t.i.w., cycle 1 Last Wednesday, mean
  Cmax: 0.361 µg/mL
clinical; 24 mg, T1/2, 24 mg q.d., cycle 1 Day 1, mean
  half-life: 3.13 h
clinical; 24 mg, T1/2, 24 mg q.d., cycle 1 Day 21, mean
  half-life: 3.12 h
clinical; 24 mg, T1/2, 24 mg t.i.w., cycle 1 Day 1, mean
  half-life: 3.52 h
clinical; 24 mg, T1/2, 24 mg t.i.w., cycle 1 Last Wednesday, mean
  half-life: 5.99 h
clinical; 24 mg, 24 mg q.d., cycle 1 Day 1, median
  Tmax: 1.98 h
clinical; 24 mg, 24 mg q.d., cycle 1 Day 21, median
  Tmax: 2 h
clinical; 24 mg, 24 mg t.i.w., cycle 1 Day 1, median
  Tmax: 3 h
clinical; 24 mg, 24 mg t.i.w., cycle 1 Last Wednesday, median
  Tmax: 1.05 h
clinical; [18]
  AUC(0-inf): 2.68 µg·h/mL
  AUC(0-t): 2.67 µg·h/mL
  Cmax: 0.556 µg/mL
clinical; 36 mg, 36 mg t.i.w., cycle 1 Last Wednesday, mean
  Cmax: 0.736 µg/mL
clinical; 36 mg, T1/2, 36 mg t.i.w., cycle 1 Day 1, mean
  half-life: 4.84 h
clinical; 36 mg, T1/2, 36 mg t.i.w., cycle 1 Last Wednesday, mean
  half-life: 6.57 h
clinical; 36 mg, 36 mg t.i.w., cycle 1 Day 1, median
  Tmax: 2 h
clinical; 36 mg, 36 mg t.i.w., cycle 1 Last Wednesday, median
  Tmax: 2.56 h
clinical; [19]
  AUC(0-inf): 3.3 µg·h/mL
  AUC(0-t): 3.29 µg·h/mL
  Cmax: 0.695 µg/mL
clinical; 56 mg, 56 mg t.i.w., cycle 1 Last Wednesday, mean
  Cmax: 0.93 µg/mL
clinical; 56 mg, T1/2, 56 mg t.i.w., cycle 1 Day 1, mean
  half-life: 5.97 h
clinical; 56 mg, T1/2, 56 mg t.i.w., cycle 1 Last Wednesday, mean
  half-life: 6.24 h
clinical; 56 mg, 56 mg t.i.w., cycle 1 Day 1, median
  Tmax: 3.08 h
clinical; 56 mg, 56 mg t.i.w., cycle 1 Last Wednesday, median
  Tmax: 2 h
clinical; [20]
  AUC(0-inf): 9.56 µg·h/mL
  AUC(0-t): 7.47 µg·h/mL
  Cmax: 0.964 µg/mL
clinical; 80 mg, 80 mg t.i.w., cycle 1 Last Wednesday, mean
  Cmax: 0.757 µg/mL
clinical; 80 mg, T1/2, 80 mg t.i.w., cycle 1 Day 1, mean
  half-life: 4.77 h
clinical; 80 mg, T1/2, 80 mg t.i.w., cycle 1 Last Wednesday, mean
  half-life: 5.28 h
clinical; 80 mg, 80 mg t.i.w., cycle 1 Last Wednesday, median
  Tmax: 3 h
clinical; [21]
  AUC(0-inf): 5.31 µg·h/mL
  AUC(0-t): 6.64 µg·h/mL
  Cmax: 0.713 µg/mL
clinical; 120 mg, 120 mg t.i.w., cycle 1 Last Wednesday, mean
  Cmax: 0.91 µg/mL
clinical; 120 mg, T1/2, 120 mg t.i.w., cycle 1 Day 1, mean
  half-life: 6.18 h
clinical; 120 mg, T1/2, 120 mg t.i.w., cycle 1 Last Wednesday, mean
  half-life: 10.6 h
clinical; 120 mg, 120 mg t.i.w., cycle 1 Day 1, median
  Tmax: 3.04 h
clinical; 120 mg, 120 mg t.i.w., cycle 1 Last Wednesday, median
  Tmax: 3.17 h
clinical; [22]
  AUC(0-t): 7.98 µg·h/mL
  Cmax: 0.819 µg/mL
clinical; 160 mg, 160 mg t.i.w., cycle 1 Last Wednesday, mean
  Cmax: 0.863 µg/mL
clinical; 160 mg, T1/2, 160 mg t.i.w., cycle 1 Day 1, mean
  half-life: 8.75 h
clinical; 160 mg, T1/2, 160 mg t.i.w., cycle 1 Last Wednesday, mean
  half-life: 3.99 h
clinical; 160 mg, 160 mg t.i.w., cycle 1 Day 1, median
  Tmax: 2.52 h
clinical; 160 mg, 160 mg t.i.w., cycle 1 Last Wednesday, median
  Tmax: 5.57 h
clinical; 200 mg, 200 mg t.i.w., cycle 1 Day 1, mean
  Cmax: 1.29 µg/mL
clinical; 200 mg, 200 mg t.i.w., cycle 1 Last Wednesday, n 1
  Cmax: 0.845 µg/mL
clinical; 200 mg, T1/2, 200 mg t.i.w., cycle 1 Day 1, mean
  half-life: 9.55 h
clinical; 200 mg, 200 mg t.i.w., cycle 1 Day 1, median
  Tmax: 2 h
